These results are taken from patent US4843066A, “Novel adenosine derivatives and pharmaceutical composition containing them as an active ingredient” (priority 1986, dated 1989).

The subject of data set [1] is spontaneously hypertensive rats (SHR). Description: Antihypertensive activity (blood pressure after oral administration). The format is in vivo. The following applies: for inhibition in vivo at 200 mg/kg / inhibition in vivo at 100 mg/kg / inhibition in vivo at 10 mg/kg / inhibition in vivo at 30 mg/kg: Rattus norvegicus, decrease vs before; for inhibition in vivo at 200 mg/kg / Blood pressure 2 hrs / Blood pressure 4 hrs / Blood pressure 6 hrs / inhibition in vivo at 100 mg/kg / inhibition in vivo at 10 mg/kg / inhibition in vivo at 30 mg/kg: SHR; for Blood pressure 2 hrs: 2 hrs after administration; for Blood pressure 2 hrs / Blood pressure 4 hrs / Blood pressure 6 hrs: mean ± S.E.; for Blood pressure 4 hrs: 4 hrs after administration; for Blood pressure 6 hrs: 6 hrs after administration. The method, then:
The test compounds, which were dissolved or suspended in 0.5% C.M.C. aqueous solution, were orally administered to groups of 3 or 4 spontaneously hypertensive rats (SHR), weighing about 300 to 400 g. Blood pressure was measured before and 2, 4 and 6 hours after the administration.

For data set [2] the following is noted: in vivo.
The next data set in a line: in vivo. The following applies: mouse, oral, in 0.5% C.M.C., ddY male mice, death rate for 7 days.
Setting [3] is: oral 200 mg/kg, 2 hrs, read-out: Blood pressure 2 hrs [Decrease].
The mark [4] stands for this setting: oral 200 mg/kg, 4 hrs, read-out: Blood pressure 4 hrs [Decrease].
[5] abbreviates: oral 200 mg/kg, 6 hrs, read-out: Blood pressure 6 hrs [Decrease].
The mark [6] stands for this setting: oral 100 mg/kg, 2 hrs, read-out: Blood pressure 2 hrs [Decrease].
Where [7] appears, read: oral 100 mg/kg, 4 hrs, read-out: Blood pressure 4 hrs [Decrease].
The mark [8] stands for this setting: oral 100 mg/kg, 6 hrs, read-out: Blood pressure 6 hrs [Decrease].
The mark [9] stands for this setting: oral 10 mg/kg, 2 hrs, read-out: Blood pressure 2 hrs [Decrease].
The mark [10] stands for this setting: oral 10 mg/kg, 4 hrs, read-out: Blood pressure 4 hrs [Decrease].
Setting [11] is: oral 10 mg/kg, 6 hrs, read-out: Blood pressure 6 hrs [Decrease].
Where [12] appears, read: oral 30 mg/kg, 2 hrs, read-out: Blood pressure 2 hrs [Decrease].
Where [13] appears, read: oral 30 mg/kg, 4 hrs, read-out: Blood pressure 4 hrs [Decrease].
The mark [14] stands for this setting: oral 30 mg/kg, 6 hrs, read-out: Blood pressure 6 hrs [Decrease].

Read-outs that look alike come from different tables or passages of the source.

Turning to `Nc1ncnc2c1ncn2[C@@H]1O[C@H](CO)[C@@H](O)[C@H]1O` [Adenosine, adenosine], the inhibition in vivo at 200 mg/kg in data set [1] (setting [3]) is -6.1%; in data set [1] (setting [4]) it was 1.8%; in data set [1] (setting [5]) it was -3.2%. The “Blood pressure 2 hrs” value in data set [1] (oral 200 mg/kg) is listed as 202 ± 12 mmHg. The “Blood pressure 4 hrs” value in data set [1] (oral 200 mg/kg) worked out at 187 ± 3 mmHg. Moreover, in data set [1] (oral 200 mg/kg), the “Blood pressure 6 hrs” value amounted to 198 ± 4 mmHg. Besides, in data set [1] (oral administration), the “hypotensive effect (in words)” value is “does not decrease blood pressure”. Besides, the “bradycardia (side effect)” value in data set [2] is “Bradycardia was observed”.
In the case of `CO[C@@H]1[C@H](O)[C@@H](CO)O[C@H]1n1cnc2c(N)ncnc21` [Compound 1, 2'-O-methyladenosine], in “in vivo”, the LD50 at 168 h was > 2000 mg/kg. The inhibition in vivo at 200 mg/kg in data set [1] (setting [3]) is 53.2%. Also, the inhibition in vivo at 200 mg/kg in data set [1] (setting [4]) is 45.8%. Further, the inhibition in vivo at 200 mg/kg in data set [1] (setting [5]) was found to be 42.8%. Also, in data set [1] (oral 200 mg/kg), the “Blood pressure 2 hrs” value is 103 ± 21 mmHg, the “Blood pressure 4 hrs” value is 121 ± 32 mmHg and the “Blood pressure 6 hrs” value is 128 ± 41 mmHg.
In the case of `CO[C@H]1[C@@H](O)[C@H](n2cnc3c(N)ncnc32)O[C@@H]1CO` [Compound 2, 3'-O-methyladenosine], the LD50 at 168 h in the data set “in vivo” was > 2000 mg/kg. Moreover, the inhibition in vivo at 200 mg/kg in data set [1] (setting [3]) turned out to be 41.2%. Also, the inhibition in vivo at 200 mg/kg in data set [1] (setting [4]) stood at 29%. In addition, the inhibition in vivo at 200 mg/kg in data set [1] (setting [5]) came out at 27.2%. Moreover, in data set [1] (oral 200 mg/kg), the “Blood pressure 2 hrs” value is given as 135 ± 28 mmHg, the “Blood pressure 4 hrs” value is on record as 163 ± 40 mmHg and the “Blood pressure 6 hrs” value amounted to 167 ± 47 mmHg.
`CCO[C@@H]1[C@H](O)[C@@H](CO)O[C@H]1n1cnc2c(N)ncnc21` [Compound 3, 2'-O-ethyladenosine]: the LD50 at 168 h in “in vivo” lay within 750 to 1000 mg/kg. For the same compound, in data set [1] (setting [6]), the inhibition in vivo at 100 mg/kg amounted to 52.2%. The inhibition in vivo at 100 mg/kg in data set [1] (setting [7]) is 49.5%. The inhibition in vivo at 100 mg/kg in data set [1] (setting [8]) is 47.3%. Further, in data set [1] (oral 100 mg/kg), the “Blood pressure 2 hrs” value is listed as 102 ± 15 mmHg, the “Blood pressure 4 hrs” value is recorded as 106 ± 20 mmHg and the “Blood pressure 6 hrs” value came out at 111 ± 26 mmHg.
As to `CO[C@@H]1[C@H](O)[C@@H](CO)O[C@H]1n1cnc2c(N)nc(C)nc21` [Compound 5, 2,2'-O-dimethyladenosine], the LD50 at 168 h in “in vivo” amounted to 540 mg/kg. The inhibition in vivo at 10 mg/kg in data set [1] (setting [9]) is 40.2%. In data set [1] (setting [10]), the inhibition in vivo at 10 mg/kg was found to be 26.5%. Also, the inhibition in vivo at 10 mg/kg in data set [1] (setting [11]) was found to be 12.7%. Moreover, in data set [1] (oral 10 mg/kg), the “Blood pressure 2 hrs” value was 131 ± 6 mmHg, the “Blood pressure 4 hrs” value is recorded as 161 ± 11 mmHg and the “Blood pressure 6 hrs” value amounted to 193 ± 24 mmHg.
Turning to `CCO[C@@H]1[C@H](O)[C@@H](CO)O[C@H]1n1cnc2c(N)nc(C)nc21` [Compound 9, 2-methyl-2'-O-ethyladenosine], the LD50 at 168 h in the data set “in vivo” lay within 500 to 1000 mg/kg. In data set [1] (setting [12]), the inhibition in vivo at 30 mg/kg is 23.6%. The inhibition in vivo at 30 mg/kg in data set [1] (setting [13]) turned out to be 10.7%. For the same compound, the inhibition in vivo at 30 mg/kg in data set [1] (setting [14]) stood at 13.5%. Also, in data set [1] (oral 30 mg/kg), the “Blood pressure 2 hrs” value amounted to 169 ± 7 mmHg, the “Blood pressure 4 hrs” value is listed as 197 ± 5 mmHg and the “Blood pressure 6 hrs” value stood at 191 ± 9 mmHg.
In the case of `COC[C@H]1O[C@@H](n2cnc3c(N)ncnc32)[C@H](O)[C@@H]1O` [Compound 11, 5'-O-methyladenosine], in the data set “in vivo”, the LD50 at 168 h was determined as 800 mg/kg. Also, in data set [1] (setting [12]), the inhibition in vivo at 30 mg/kg turned out to be 18.2%. The inhibition in vivo at 30 mg/kg in data set [1] (setting [13]) came to 5.9%. The inhibition in vivo at 30 mg/kg in data set [1] (setting [14]) stood at 6.6%. For the same compound, in data set [1] (oral 30 mg/kg), the “Blood pressure 2 hrs” value came out at 189 ± 3 mmHg, the “Blood pressure 4 hrs” value came to 206 ± 10 mmHg and the “Blood pressure 6 hrs” value is 204 ± 9 mmHg.
`COC[C@H]1O[C@@H](n2cnc3c(N)nc(C)nc32)[C@H](O)[C@@H]1O` [Compound 15, 2,5'-O-dimethyladenosine] had an LD50 at 168 h in the data set “in vivo” of 500 to 1000 mg/kg. In data set [1] (setting [9]), the inhibition in vivo at 10 mg/kg was 35.2%. In addition, the inhibition in vivo at 10 mg/kg in data set [1] (setting [10]) was determined as 17.7%. The inhibition in vivo at 10 mg/kg in data set [1] (setting [11]) amounted to 9.1%. Moreover, in data set [1] (oral 10 mg/kg), the “Blood pressure 2 hrs” value was determined as 154 ± 13 mmHg, the “Blood pressure 4 hrs” value was found to be 195 ± 22 mmHg and the “Blood pressure 6 hrs” value is on record as 215 ± 5 mmHg.
Consider `CNc1ncnc2c1ncn2[C@@H]1O[C@H](CO)[C@@H](O)[C@H]1OC` [Compound 17, N^6-2'-O-dimethyladenosine], for which the inhibition in vivo at 30 mg/kg is 17.1% in data set [1] (setting [12]), 11.7% in data set [1] (setting [13]) and 14.1% in data set [1] (setting [14]). Further, the “Blood pressure 2 hrs” value in data set [1] (oral 30 mg/kg) stood at 192 ± 15 mmHg. The “Blood pressure 4 hrs” value in data set [1] (oral 30 mg/kg) was determined as 204 ± 5 mmHg. The “Blood pressure 6 hrs” value in data set [1] (oral 30 mg/kg) amounted to 199 ± 8 mmHg.
Turning to `CNc1ncnc2c1ncn2[C@@H]1O[C@H](COC)[C@@H](O)[C@H]1O` [Compound 19, N^6-5'-O-dimethyladenosine], the LD50 at 168 h in the data set “in vivo” stood at 1300 mg/kg. The inhibition in vivo at 30 mg/kg in data set [1] (setting [12]) was 43%. Besides, the inhibition in vivo at 30 mg/kg in data set [1] (setting [13]) worked out at 27.1%. In data set [1] (setting [14]), the inhibition in vivo at 30 mg/kg is 26.3%. Also, in data set [1] (oral 30 mg/kg), the “Blood pressure 2 hrs” value is recorded as 122 ± 8 mmHg, the “Blood pressure 4 hrs” value was 155 ± 7 mmHg and the “Blood pressure 6 hrs” value is reported as 157 ± 12 mmHg.
Consider `CNc1nc(C)nc2c1ncn2[C@@H]1O[C@H](CO)[C@@H](O)[C@H]1OC` [Compound 21, 2,N^6,2'-O-trimethyladenosine], for which the LD50 at 168 h in “in vivo” was ~400 mg/kg. Moreover, the inhibition in vivo at 30 mg/kg in data set [1] (setting [12]) worked out at 23.9%; in data set [1] (setting [13]), 16.9%; in data set [1] (setting [14]), 10.8%. Further, the “Blood pressure 2 hrs” value in data set [1] (oral 30 mg/kg) stood at 159 ± 20 mmHg. Moreover, the “Blood pressure 4 hrs” value in data set [1] (oral 30 mg/kg) is 172 ± 7 mmHg. The “Blood pressure 6 hrs” value in data set [1] (oral 30 mg/kg) is listed as 188 ± 8 mmHg.
As for `CCO[C@@H]1[C@H](O)[C@@H](CO)O[C@H]1n1cnc2c(NC)nc(C)nc21` [Compound 22, 2,N^6-dimethyl-2'-O-ethyladenosine], the LD50 at 168 h in the data set “in vivo” is ~400 mg/kg. In addition, the inhibition in vivo at 10 mg/kg in data set [1] (setting [9]) was found to be 25.8%. In data set [1] (setting [10]), the inhibition in vivo at 10 mg/kg was 18.8%. Besides, in data set [1] (setting [11]), the inhibition in vivo at 10 mg/kg is 13.1%. In addition, in data set [1] (oral 10 mg/kg), the “Blood pressure 2 hrs” value came out at 168 ± 6 mmHg, the “Blood pressure 4 hrs” value is reported as 185 ± 7 mmHg and the “Blood pressure 6 hrs” value came out at 197 ± 3 mmHg.
In the data set “in vivo”, `CNc1nc(C)nc2c1ncn2[C@@H]1O[C@H](COC)[C@@H](O)[C@H]1O` [Compound 24, 2,N^6,5'-O-trimethyladenosine] yielded an LD50 at 168 h of 1320 mg/kg. Moreover, the values for the inhibition in vivo at 10 mg/kg in data set [1] (setting [9]), in data set [1] (setting [10]) and in data set [1] (setting [11]) were 43.3%, 27% and 23%, respectively. Further, the “Blood pressure 2 hrs” value in data set [1] (oral 10 mg/kg) amounted to 128 ± 7 mmHg. In addition, the “Blood pressure 4 hrs” value in data set [1] (oral 10 mg/kg) was 165 ± 7 mmHg. Moreover, in data set [1] (oral 10 mg/kg), the “Blood pressure 6 hrs” value stood at 174 ± 4 mmHg.
In the case of `CO[C@@H]1[C@H](O)[C@@H](CO)O[C@H]1n1cnc2c(N)nc(Cl)nc21` [Compound 27, 2-chloro-2'-O-methyladenosine], in “in vivo”, the LD50 at 168 h was ~400 mg/kg. Moreover, the inhibition in vivo at 100 mg/kg in data set [1] (setting [6]) amounted to 68.4%. Besides, the inhibition in vivo at 100 mg/kg in data set [1] (setting [7]) is 64.8%. The inhibition in vivo at 100 mg/kg in data set [1] (setting [8]) amounted to 66.9%. In data set [1] (oral 100 mg/kg), the “Blood pressure 2 hrs” value was 70 ± 10 mmHg, the “Blood pressure 4 hrs” value is listed as 78 ± 8 mmHg and the “Blood pressure 6 hrs” value amounted to 73 ± 16 mmHg.
Turning to `CO[C@@H]1[C@H](O)[C@@H](CO)O[C@H]1n1cnc2c(N)nc(F)nc21` [Compound 29, 2-fluoro-2'-O-methyladenosine], the LD50 at 168 h in the data set “in vivo” is > 2000 mg/kg. The inhibition in vivo at 30 mg/kg in data set [1] (setting [12]) was 45.9%. In addition, the inhibition in vivo at 30 mg/kg in data set [1] (setting [13]) was determined as 19.8%. For the same compound, the inhibition in vivo at 30 mg/kg in data set [1] (setting [14]) came out at 16.4%. In data set [1] (oral 30 mg/kg), the “Blood pressure 2 hrs” value is 131 ± 4 mmHg, the “Blood pressure 4 hrs” value stood at 195 ± 5 mmHg and the “Blood pressure 6 hrs” value was determined as 204 ± 3 mmHg.

In general, LD50 refers to the dose at which mortality reaches 50%.
